Source: publication PMC10321317 (Genome Biology and Evolution, 2023)
Entries after “also recorded” stand apart in the source; their conditions may differ. Square brackets hold non-standard residues; d marks the D form. Ends that are not written are not given here. Peptide text beside a SMILES is read from it. pGlu = O=C1CC[C@@H](C(=O)O)N1

Legend:
[1] = molecular target: T1, B. floridae CRZR3 (Branchiostoma floridae, UniProt A0A9J7HT38); assay: Luminescence response in HEK293-G5a cells expressing B. floridae CRZR3 (with Gαqi9); assay type: cell-based; details: for EC50: fig. 2D, HEK293-G5a, Gαqi9, 10^−4 M to 10^−12 M in DMEM, luminescence integrated over 65 s, normalized to maximum response, four-parameter curve, minimum of two independent transfections, read-out: EC50 values for the dose–response curves, CRZR3
T1 sequence (A0A9J7HT38 1-394): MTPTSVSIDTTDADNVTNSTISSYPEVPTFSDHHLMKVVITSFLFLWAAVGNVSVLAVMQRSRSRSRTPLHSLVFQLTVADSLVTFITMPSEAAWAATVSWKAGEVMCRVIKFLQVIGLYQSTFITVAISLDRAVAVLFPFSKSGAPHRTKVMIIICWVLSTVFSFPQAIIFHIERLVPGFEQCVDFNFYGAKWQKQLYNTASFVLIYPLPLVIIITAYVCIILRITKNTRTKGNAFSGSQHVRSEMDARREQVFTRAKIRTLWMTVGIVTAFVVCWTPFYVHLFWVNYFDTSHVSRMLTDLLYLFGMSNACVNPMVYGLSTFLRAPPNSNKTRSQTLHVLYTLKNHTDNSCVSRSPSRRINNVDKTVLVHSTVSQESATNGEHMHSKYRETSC
From the text: (§1) For this purpose, we expressed individual receptors in a heterologous expression system comprising human embryo kidney 293 cells (HEK293-G5a) cells and monitored luminescence responses to three synthetic peptides.
(§2) Five millimoles of stock solutions of all peptides were first prepared in 50% Dimethyl sulfoxide. […] These receptors were codon-optimized for mammalian cell lines, synthesized and cloned into pcDNA3.4(+) vector by Genscript synthesis services. A 5′ partial Kozak translation initiation sequence (CCACC) was also included to improve expression. The codon-optimized receptor sequences are provided in supplementary file 9, Supplementary Material online. HEK293-G5a (Angio-proteomie CAT no. cAP-0200GFP-AEQ-Cyto) cells were cultured in 96 well-plates containing 100 μl of Dublecco’s Modified Eagle medium (DMEM; Thermo; Cat. No. 10566016) supplemented with 10% foetal bovine serum (Thermo; Cat. No. 10082147). The plates were kept in an incubator at 37°C and 5% CO2. Upon reaching 85% confluency, cells were co-transfected with plasmids encoding individual receptors or the empty pcDNA3.1 + vector (control), and the Gαqi9 promiscuous protein [Addgene; Cat. No. 125711 {[Masharina et al. 2012]}], as described previously ([Yañez-Guerra et al. 2022]). Transfections were carried out with 60 ng of each plasmid and 0.45 μl of the transfection reagent Transfectamine 5,000 (AAT-bioquest; Cat. No. 60022) per well. Two days post-transfection, the media was replaced with fresh DMEM medium supplemented with […] coelenterazine-H (Thermo Fisher Scientific; Cat. No. C6780). The cells were incubated for 2 h and then used for the luminescence assay. Various concentrations of the three synthetic peptides ranging from 10^−4 M to 10^−12 M were prepared in DMEM media and tested on the cells. Luminescence levels were recorded and integrated over a 65-s measurement period in a FlexStation 3 Multi-Mode Microplate Reader (Molecular Devices). A minimum of two independent transfections (biological replicates) for each receptor and two–three technical replicates for each peptide concentration were performed. The responses were normalized to the maximum response obtained following the addition of peptide in each experiment (100% activation) and to the response obtained with the vehicle media (0% activation). Normalized data from the independent transfections was used to plot the dose–response curves (fitted with a four-parameter curve) using the package drc in R ([Ritz et al. 2015]). The raw data for the emtpy-vector control and receptor characterization are provided in supplementary files 10 and 11, Supplementary Material online, respectively. The script used for the dose–response curve analysis is available on Github (https://github.com/Imnotabioinformatician/Branchiostoma_Dose_response_curves).

[2] = molecular target: T2, B. floridae CRZR1 (Branchiostoma floridae, UniProt C0IP22); assay: Luminescence response in HEK293-G5a cells expressing B. floridae CRZR1 (with Gαqi9); assay type: cell-based
T2 sequence (C0IP22 1-831): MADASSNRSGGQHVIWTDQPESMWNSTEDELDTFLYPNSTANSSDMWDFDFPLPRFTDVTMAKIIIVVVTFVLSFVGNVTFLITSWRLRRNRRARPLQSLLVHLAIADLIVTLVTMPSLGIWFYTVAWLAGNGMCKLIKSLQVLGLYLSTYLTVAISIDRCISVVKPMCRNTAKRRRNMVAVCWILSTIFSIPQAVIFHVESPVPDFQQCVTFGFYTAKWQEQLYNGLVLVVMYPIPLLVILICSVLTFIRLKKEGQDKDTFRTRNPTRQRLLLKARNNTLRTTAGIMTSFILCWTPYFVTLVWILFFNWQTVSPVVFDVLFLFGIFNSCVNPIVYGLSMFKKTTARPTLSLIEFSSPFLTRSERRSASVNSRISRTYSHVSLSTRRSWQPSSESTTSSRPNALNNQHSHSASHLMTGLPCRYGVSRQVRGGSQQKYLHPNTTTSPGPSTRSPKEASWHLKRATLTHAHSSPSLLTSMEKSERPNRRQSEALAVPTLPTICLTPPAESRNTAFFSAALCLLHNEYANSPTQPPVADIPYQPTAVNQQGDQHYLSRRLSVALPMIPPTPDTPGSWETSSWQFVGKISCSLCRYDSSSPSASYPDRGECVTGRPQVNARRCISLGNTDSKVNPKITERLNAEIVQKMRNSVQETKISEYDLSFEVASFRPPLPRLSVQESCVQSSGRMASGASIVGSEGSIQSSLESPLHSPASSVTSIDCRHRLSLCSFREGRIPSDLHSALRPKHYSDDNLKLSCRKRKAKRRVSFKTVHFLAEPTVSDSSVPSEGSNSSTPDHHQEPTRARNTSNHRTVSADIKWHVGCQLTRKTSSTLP
From the text: as §1
as §2, with “The responses were normalized to the maximum response obtained following the addition of peptide in each experiment (100% activation) and to the response obtained with the vehicle media (0% activation). Normalized data from the independent transfections was used to plot the dose–response curves (fitted with a four-parameter curve) using the package drc in R ([Ritz et al. 2015]). The raw data for the emtpy-vector control and receptor characterization are provided in supplementary files 10 and 11, Supplementary Material online, respectively. The script used for the dose–response curve analysis is available on Github (https://github.com/Imnotabioinformatician/Branchiostoma_Dose_response_curves).” left out

[3] = molecular target: T3, B. floridae GnRHR2 (Branchiostoma floridae, UniProt C0IP20); assay: Luminescence response in HEK293-G5a cells expressing B. floridae GnRHR2 (with Gαqi9); assay type: cell-based
T3 sequence (C0IP20 1-397): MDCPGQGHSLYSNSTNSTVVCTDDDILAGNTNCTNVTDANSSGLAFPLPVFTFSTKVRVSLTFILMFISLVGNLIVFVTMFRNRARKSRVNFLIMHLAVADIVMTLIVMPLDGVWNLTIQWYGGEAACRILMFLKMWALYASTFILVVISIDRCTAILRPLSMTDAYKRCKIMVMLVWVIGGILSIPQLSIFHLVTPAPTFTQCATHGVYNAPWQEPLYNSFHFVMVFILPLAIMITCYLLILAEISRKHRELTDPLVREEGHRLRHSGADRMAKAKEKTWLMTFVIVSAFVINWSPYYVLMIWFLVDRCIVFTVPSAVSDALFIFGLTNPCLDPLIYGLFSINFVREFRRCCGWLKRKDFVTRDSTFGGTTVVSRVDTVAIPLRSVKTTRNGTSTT
From the text: as §1
as §2, with “The responses were normalized to the maximum response obtained following the addition of peptide in each experiment (100% activation) and to the response obtained with the vehicle media (0% activation). Normalized data from the independent transfections was used to plot the dose–response curves (fitted with a four-parameter curve) using the package drc in R ([Ritz et al. 2015]). The raw data for the emtpy-vector control and receptor characterization are provided in supplementary files 10 and 11, Supplementary Material online, respectively. The script used for the dose–response curve analysis is available on Github (https://github.com/Imnotabioinformatician/Branchiostoma_Dose_response_curves).” left out

[4] = molecular target: T4, B. floridae GnRHR1 (Branchiostoma floridae, UniProt C0IP19); assay: Luminescence response in HEK293-G5a cells expressing B. floridae GnRHR1 (with Gαqi9); assay type: cell-based
T4 sequence (C0IP19 1-403): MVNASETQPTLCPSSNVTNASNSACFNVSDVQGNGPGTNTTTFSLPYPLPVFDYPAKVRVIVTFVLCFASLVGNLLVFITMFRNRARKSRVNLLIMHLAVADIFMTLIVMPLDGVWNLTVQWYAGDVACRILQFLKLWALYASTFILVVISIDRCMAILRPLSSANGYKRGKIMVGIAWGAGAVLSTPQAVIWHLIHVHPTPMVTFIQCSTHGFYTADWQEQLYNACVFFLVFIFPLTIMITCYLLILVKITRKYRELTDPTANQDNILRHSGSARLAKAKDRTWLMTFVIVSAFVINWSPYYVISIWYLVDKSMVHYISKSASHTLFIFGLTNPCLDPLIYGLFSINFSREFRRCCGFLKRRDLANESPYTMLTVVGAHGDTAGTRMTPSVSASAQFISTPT
From the text: as §1
as §2, with “The responses were normalized to the maximum response obtained following the addition of peptide in each experiment (100% activation) and to the response obtained with the vehicle media (0% activation). Normalized data from the independent transfections was used to plot the dose–response curves (fitted with a four-parameter curve) using the package drc in R ([Ritz et al. 2015]). The raw data for the emtpy-vector control and receptor characterization are provided in supplementary files 10 and 11, Supplementary Material online, respectively. The script used for the dose–response curve analysis is available on Github (https://github.com/Imnotabioinformatician/Branchiostoma_Dose_response_curves).” left out

[5] = molecular target: one of the two CRZ-like receptors; parameters: method as in Roch, Tello, et al. 2014; details: ref Roch, Tello, et al. 2014; cited from earlier work
[6] = molecular target: T5, B. floridae CRZR2 (Branchiostoma floridae, UniProt C4N9P5); assay: Luminescence response in HEK293-G5a cells expressing B. floridae CRZR2 (with Gαqi9); assay type: cell-based
T5 sequence (C4N9P5 1-421): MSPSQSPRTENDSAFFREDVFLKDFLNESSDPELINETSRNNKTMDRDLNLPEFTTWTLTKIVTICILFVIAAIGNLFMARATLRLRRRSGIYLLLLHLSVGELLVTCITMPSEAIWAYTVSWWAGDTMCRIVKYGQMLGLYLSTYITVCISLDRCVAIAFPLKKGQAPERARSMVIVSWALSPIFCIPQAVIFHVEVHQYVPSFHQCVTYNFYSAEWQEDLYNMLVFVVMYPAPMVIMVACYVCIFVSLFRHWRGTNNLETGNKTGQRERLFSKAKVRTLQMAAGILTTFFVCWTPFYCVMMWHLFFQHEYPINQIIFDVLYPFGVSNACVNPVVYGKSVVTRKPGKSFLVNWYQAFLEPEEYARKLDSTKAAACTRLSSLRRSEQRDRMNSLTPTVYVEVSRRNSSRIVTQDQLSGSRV
From the text: as §1
Five millimoles of stock solutions of all peptides were first prepared in 50% Dimethyl sulfoxide. […] These receptors were codon-optimized for mammalian cell lines, synthesized and cloned into pcDNA3.4(+) vector by Genscript synthesis services. A 5′ partial Kozak translation initiation sequence (CCACC) was also included to improve expression. The codon-optimized receptor sequences are provided in supplementary file 9, Supplementary Material online. HEK293-G5a (Angio-proteomie CAT no. cAP-0200GFP-AEQ-Cyto) cells were cultured in 96 well-plates containing 100 μl of Dublecco’s Modified Eagle medium (DMEM; Thermo; Cat. No. 10566016) supplemented with 10% foetal bovine serum (Thermo; Cat. No. 10082147). The plates were kept in an incubator at 37°C and 5% CO2. […] The cells were incubated for 2 h and then used for the luminescence assay. […] Luminescence levels were recorded and integrated over a 65-s measurement period in a FlexStation 3 Multi-Mode Microplate Reader (Molecular Devices). […]

Compound | EC50 [1] | EC50 for the response, CRZR1 (in words) [2] | EC50 for the response, GnRHR2 (in words) ([3]; HEK293-G5a cells, luminescence) | EC50 ([3]; fig. 2D, HEK293-G5a, Gαqi9, 10^−4 M to 10^−12 M in DMEM, luminescence integrated over 65 s, normalized to maximum response, four-parameter curve, minimum of two independent transfections, read-out: EC50 values for the dose–response curves, GnRHR2) | EC50 for the response, GnRHR1 (in words) ([4]; HEK293-G5a cells, luminescence) | EC50 ([4]; fig. 2D, HEK293-G5a, Gαqi9, 10^−4 M to 10^−12 M in DMEM, luminescence integrated over 65 s, normalized to maximum response, four-parameter curve, minimum of two independent transfections, read-out: EC50 values for the dose–response curves, GnRHR1) | activation of one of the two CRZ-like receptors (in words) [5] | EC50 for the response, CRZR3 (in words) ([1]; HEK293-G5a cells, luminescence) | activation of CRZR3 (in words) ([1]; HEK293-G5a cells, luminescence) | activation of CRZR1 (in words) [2] | activation of GnRHR2 (in words) ([3]; HEK293-G5a cells, luminescence) | activation of GnRHR1 (in words) ([4]; HEK293-G5a cells, luminescence) | EC50 for the response, CRZR2 (in words) [6] | activation of CRZR2 (in words) [6]
YSYSYGFAP-NH2 | 3800 nM | mid-to-low nanomolar physiological range | low nanomolar range | 2.2 nM | low nanomolar range | 3.2 nM | – | – | – | – | – | – | – | –
CC[C@H](C)[C@H](NC(=O)[C@@H]1CCC(=O)N1)C(=O)N[C@@H](CC(C)C)C(=O)N[C@@H](CS)C(=O)N[C@@H](C)C(=O)N[C@@H](CCCNC(=N)N)C(=O)N[C@@H](C)C(=O)N[C@@H](Cc1ccccc1)C(=O)N[C@H](C(=O)N[C@@H](Cc1ccc(O)cc1)C(=O)N[C@H](C(=O)N[C@@H](Cc1c[nH]cn1)C(=O)N[C@H](C(=O)N[C@@H](Cc1c[nH]c2ccccc12)C(N)=O)[C@@H](C)O)[C@@H](C)O)[C@@H](C)O [CRZ-ext] ([pGlu]ILCARAFTYTHTW-NH2) | 950 nM | equally high | – | – | – | – | high nanomolar range | equally high | all activated by CRZ, GnRH, and CRZ-ext; also recorded: also activated by CRZ-ext | all activated by CRZ, GnRH, and CRZ-ext; also recorded: also activated by CRZ-ext | Neither of these two receptors were activated | Neither of these two receptors were activated | high nanomolar range | all activated by CRZ, GnRH, and CRZ-ext
FTYTHTW-NH2 [CRZ, FTYTHTW-NH2] | 6.9 nM | – | – | – | – | – | – | – | – | – | – | – | – | –
